Experimental data published in patent US20090221649A1, “Use of substituted 2-thio-3,5-dicyano-4-phenyl-6-aminopyridines for the treatment of reperfusion injury and reperfusion damage” (Bayer HealthCare AG, priority 2005, published 2009).
“Also recorded” adds a separate entry of the source.

What was measured:
isolated rabbit hearts = assay: Limitation of infarct size in isolated buffer-perfused rabbit hearts, drug at reperfusion
Experimental: The quantification of infarct size and experimental design followed the protocol described by Zhang et al., J Cardiovasc Pharmacol 42, 2003.
Hearts were quickly removed from anesthetized rabbits and perfused with Krebs buffer. […] The risk zone was stained with fluorescent microspheres, then the heart was sliced into 2 mm sections and the infarct size was visualized by tetrazolium staining. The drug was mixed with the perfusate at 50 μg/L starting 5 min prior to reperfusion and continuing for 55 min. […] Ischemic preconditioning is the most powerful cardioprotective intervention known but of no practical value clinically.

rabbit hearts (in vivo) = assay: Limitation of infarct size in rabbit hearts in vivo (open-chest rabbits), drug at reperfusion; parameters: species or system New Zealand White rabbits
Experimental: Rabbits (New Zealand White rabbits of either sex weighing 1.6 to 3.0 kg) were anesthetized with sodium pentobarbital (30 mg/kg) which was subsequently supplemented as needed. Positive pressure ventilation with 100% oxygen was instituted. The heart was exposed through a left thoracotomy and a ligature was passed under a coronary branch to create the ischemia. Drug was given intravenously in a dose of 10 μg/kg over 1 min starting 5 min prior to reperfusion and again 15 min after reperfusion. The heart was removed after 3 hr of reperfusion. The risk zone was stained with fluorescent microspheres, then the heart was sliced into 2 mm sections and the infarct size was determined by tetrazolium staining.
Postconditioning is an established cardioprotective intervention where the occluded artery is intermittently opened and closed for four 30-second cycles at the end of the ischemic insult.

[1] = Tolerability when given intravenously; format: in vivo

SMILES | reduction of infarct size (isolated rabbit hearts; 50 μg/L in perfusate from 5 min prior to reperfusion for 55 min, 30 min ischemia, 2 hr reperfusion) [%] | protection compared with ischemic preconditioning (IPC) (isolated rabbit hearts; 50 μg/L, IPC = 5 min ischemia and 10 min reperfusion) | infarct size in % of risk area, untreated hearts in comparison to treated hearts (isolated rabbit hearts; 50 μg/L, p=0.032) | infarct size limitation compared with postconditioning (rabbit hearts (in vivo); 10 μg/kg i.v. 5 min prior to and 15 min after reperfusion) | reduction of infarct size (rabbit hearts (in vivo); 10 μg/kg i.v. 5 min prior to and 15 min after reperfusion, 30 min regional ischemia, 3 hr reperfusion) [%] | adverse hemodynamic effects (rabbit hearts (in vivo); 10 μg/kg i.v., open-chest rabbits) | tolerability [1]
N#Cc1c(N)nc(SCC(N)=O)c(C#N)c1-c1ccc(O)cc1 [Compound A, 2-{[6-Amino-3,5-dicyano-4-(4-hydroxyphenyl)pyridin-2-yl]thio}acetamide] | ~50 | not as protective as ischemic preconditioning | significantly larger |  |  |  | 
N#Cc1c(N)nc(SCC(N)=O)c(C#N)c1-c1ccc(OCC2CC2)cc1 [Compound B, 2-({6-Amino-3,5-dicyano-4-[4-(cyclopropylmethoxy)phenyl]pyridin-2-yl}thio)acetamide] |  |  |  | equivalent to postconditioning in its potency; also recorded: as effective as postconditioning | > 50 | No adverse hemodynamic effects | well tolerated
